Measurements taken from ChEMBL document CHEMBL5303573, “Mapping human microbiome drug metabolism by gut bacteria and their genes” (Nature, 2019).

Test: The drug is tested on Bacteroides caccae strain: ATCC43185 for biotransformation. The drug concentrations were measured before and after a 12-h incubation by liquid-chromatography-coupled mass spectrometry (LC–MS)
Settings: 2 µM

Structure (SMILES) | Bacterial Biotransformation
CC(C)(C)NC[C@H](O)COc1ccccc1C1CCCC1.CC(C)(C)NC[C@H](O)COc1ccccc1C1CCCC1.O=S(=O)(O)O [PENBUTOLOL SULFATE] | Compound NOT metabolized
OC(c1cc(C(F)(F)F)nc2c(C(F)(F)F)cccc12)C1CCCCN1 (configuration not stated) [MEFLOQUINE] | Compound NOT metabolized
O=C(O[C@H]1C[C@H]2CC[C@@H](C1)[N+]21CCCC1)C(O)(c1ccccc1)c1ccccc1.[Cl-] [TROSPIUM CHLORIDE] | Compound NOT metabolized
C[C@@H]1C[C@H]2[C@@H]3CCC4=CC(=O)C=C[C@]4(C)[C@@]3(F)[C@@H](O)C[C@]2(C)[C@@]1(O)C(=O)CO [DEXAMETHASONE] | Compound NOT metabolized

Test: The drug is tested on Bacteroides fragilis strain: HMW610 for biotransformation. The drug concentrations were measured before and after a 12-h incubation by liquid-chromatography-coupled mass spectrometry (LC–MS)
Settings: 2 µM

Structure (SMILES) | Bacterial Biotransformation
CC(C)(C)NC[C@H](O)COc1ccccc1C1CCCC1.CC(C)(C)NC[C@H](O)COc1ccccc1C1CCCC1.O=S(=O)(O)O [PENBUTOLOL SULFATE] | Compound NOT metabolized
OC(c1cc(C(F)(F)F)nc2c(C(F)(F)F)cccc12)C1CCCCN1 (configuration not stated) [MEFLOQUINE] | Compound NOT metabolized
C[C@@H]1C[C@H]2[C@@H]3CCC4=CC(=O)C=C[C@]4(C)[C@@]3(F)[C@@H](O)C[C@]2(C)[C@@]1(O)C(=O)CO [DEXAMETHASONE] | Compound metabolized

Test: The drug is tested on Bacteroides fragilis strain: HMW615 for biotransformation. The drug concentrations were measured before and after a 12-h incubation by liquid-chromatography-coupled mass spectrometry (LC–MS)
Settings: 2 µM

Structure (SMILES) | Bacterial Biotransformation
CC(C)(C)NC[C@H](O)COc1ccccc1C1CCCC1.CC(C)(C)NC[C@H](O)COc1ccccc1C1CCCC1.O=S(=O)(O)O [PENBUTOLOL SULFATE] | Compound NOT metabolized
OC(c1cc(C(F)(F)F)nc2c(C(F)(F)F)cccc12)C1CCCCN1 (configuration not stated) [MEFLOQUINE] | Compound NOT metabolized

Test: The drug is tested on Bacteroides fragilis strain: ATCC43859 for biotransformation. The drug concentrations were measured before and after a 12-h incubation by liquid-chromatography-coupled mass spectrometry (LC–MS)
Settings: 2 µM

Structure (SMILES) | Bacterial Biotransformation
OC(c1cc(C(F)(F)F)nc2c(C(F)(F)F)cccc12)C1CCCCN1 (configuration not stated) [MEFLOQUINE] | Compound NOT metabolized
C[C@@H]1C[C@H]2[C@@H]3CCC4=CC(=O)C=C[C@]4(C)[C@@]3(F)[C@@H](O)C[C@]2(C)[C@@]1(O)C(=O)CO [DEXAMETHASONE] | Compound metabolized

Test: The drug is tested on Bacteroides pectinophilus strain: ATCC43243 for biotransformation. The drug concentrations were measured before and after a 12-h incubation by liquid-chromatography-coupled mass spectrometry (LC–MS)
Settings: 2 µM

Structure (SMILES) | Bacterial Biotransformation
OC(c1cc(C(F)(F)F)nc2c(C(F)(F)F)cccc12)C1CCCCN1 (configuration not stated) [MEFLOQUINE] | Compound NOT metabolized

Test: The drug is tested on Odoribacter splanchnicus strain: fecal isolate for biotransformation. The drug concentrations were measured before and after a 12-h incubation by liquid-chromatography-coupled mass spectrometry (LC–MS)
Settings: 2 µM

Structure (SMILES) | Bacterial Biotransformation
CC(C)(C)NC[C@H](O)COc1ccccc1C1CCCC1.CC(C)(C)NC[C@H](O)COc1ccccc1C1CCCC1.O=S(=O)(O)O [PENBUTOLOL SULFATE] | Compound NOT metabolized

Test: The drug is tested on Parabacteroides merdae strain: ATCC43184 for biotransformation. The drug concentrations were measured before and after a 12-h incubation by liquid-chromatography-coupled mass spectrometry (LC–MS)
Settings: 2 µM

Structure (SMILES) | Bacterial Biotransformation
CC(C)(C)NC[C@H](O)COc1ccccc1C1CCCC1.CC(C)(C)NC[C@H](O)COc1ccccc1C1CCCC1.O=S(=O)(O)O [PENBUTOLOL SULFATE] | Compound NOT metabolized
OC(c1cc(C(F)(F)F)nc2c(C(F)(F)F)cccc12)C1CCCCN1 (configuration not stated) [MEFLOQUINE] | Compound NOT metabolized
O=C(O[C@H]1C[C@H]2CC[C@@H](C1)[N+]21CCCC1)C(O)(c1ccccc1)c1ccccc1.[Cl-] [TROSPIUM CHLORIDE] | Compound NOT metabolized

Test: The drug is tested on Anaerococcus hydrogenalis strain: DSM7454 for biotransformation. The drug concentrations were measured before and after a 12-h incubation by liquid-chromatography-coupled mass spectrometry (LC–MS)
Settings: 2 µM

Structure (SMILES) | Bacterial Biotransformation
CC(C)(C)NC[C@H](O)COc1ccccc1C1CCCC1.CC(C)(C)NC[C@H](O)COc1ccccc1C1CCCC1.O=S(=O)(O)O [PENBUTOLOL SULFATE] | Compound NOT metabolized
O=C(O[C@H]1C[C@H]2CC[C@@H](C1)[N+]21CCCC1)C(O)(c1ccccc1)c1ccccc1.[Cl-] [TROSPIUM CHLORIDE] | Compound NOT metabolized
C[C@@H]1C[C@H]2[C@@H]3CCC4=CC(=O)C=C[C@]4(C)[C@@]3(F)[C@@H](O)C[C@]2(C)[C@@]1(O)C(=O)CO [DEXAMETHASONE] | Compound NOT metabolized

Test: The drug is tested on Blautia luti strain: DSM14534 for biotransformation. The drug concentrations were measured before and after a 12-h incubation by liquid-chromatography-coupled mass spectrometry (LC–MS)
Format: ADME
Design: dose 2 uM, timepoint 0 vs 12 hours
Settings: 2 µM

Structure (SMILES) | Bacterial Biotransformation
CC(C)(C)NC[C@H](O)COc1ccccc1C1CCCC1.CC(C)(C)NC[C@H](O)COc1ccccc1C1CCCC1.O=S(=O)(O)O [PENBUTOLOL SULFATE] | Compound NOT metabolized
OC(c1cc(C(F)(F)F)nc2c(C(F)(F)F)cccc12)C1CCCCN1 (configuration not stated) [MEFLOQUINE] | Compound NOT metabolized
O=C(O[C@H]1C[C@H]2CC[C@@H](C1)[N+]21CCCC1)C(O)(c1ccccc1)c1ccccc1.[Cl-] [TROSPIUM CHLORIDE] | Compound NOT metabolized
C[C@@H]1C[C@H]2[C@@H]3CCC4=CC(=O)C=C[C@]4(C)[C@@]3(F)[C@@H](O)C[C@]2(C)[C@@]1(O)C(=O)CO [DEXAMETHASONE] | Compound NOT metabolized

Test: The drug is tested on Clostridium sp. strain: fecal isolate for biotransformation. The drug concentrations were measured before and after a 12-h incubation by liquid-chromatography-coupled mass spectrometry (LC–MS)
Settings: 2 µM

Structure (SMILES) | Bacterial Biotransformation
CC(C)(C)NC[C@H](O)COc1ccccc1C1CCCC1.CC(C)(C)NC[C@H](O)COc1ccccc1C1CCCC1.O=S(=O)(O)O [PENBUTOLOL SULFATE] | Compound metabolized

Test: The drug is tested on Clostridium ramosum strain: DSM1402 for biotransformation. The drug concentrations were measured before and after a 12-h incubation by liquid-chromatography-coupled mass spectrometry (LC–MS)
Settings: thomasclavelia ramosa, 2 µM

Structure (SMILES) | Bacterial Biotransformation
O=C(O[C@H]1C[C@H]2CC[C@@H](C1)[N+]21CCCC1)C(O)(c1ccccc1)c1ccccc1.[Cl-] [TROSPIUM CHLORIDE] | Compound NOT metabolized

Test: The drug is tested on Eubacterium rectale strain: ATCC33656 for biotransformation. The drug concentrations were measured before and after a 12-h incubation by liquid-chromatography-coupled mass spectrometry (LC–MS)
Settings: agathobacter rectalis, 2 µM

Structure (SMILES) | Bacterial Biotransformation
CC(C)(C)NC[C@H](O)COc1ccccc1C1CCCC1.CC(C)(C)NC[C@H](O)COc1ccccc1C1CCCC1.O=S(=O)(O)O [PENBUTOLOL SULFATE] | Compound NOT metabolized
OC(c1cc(C(F)(F)F)nc2c(C(F)(F)F)cccc12)C1CCCCN1 (configuration not stated) [MEFLOQUINE] | Compound NOT metabolized
O=C(O[C@H]1C[C@H]2CC[C@@H](C1)[N+]21CCCC1)C(O)(c1ccccc1)c1ccccc1.[Cl-] [TROSPIUM CHLORIDE] | Compound NOT metabolized
C[C@@H]1C[C@H]2[C@@H]3CCC4=CC(=O)C=C[C@]4(C)[C@@]3(F)[C@@H](O)C[C@]2(C)[C@@]1(O)C(=O)CO [DEXAMETHASONE] | Compound NOT metabolized

Test: The drug is tested on Ruminococcus lactaris strain: ATCC29176 for biotransformation. The drug concentrations were measured before and after a 12-h incubation by liquid-chromatography-coupled mass spectrometry (LC–MS)
Settings: 2 µM

Structure (SMILES) | Bacterial Biotransformation
CC(C)(C)NC[C@H](O)COc1ccccc1C1CCCC1.CC(C)(C)NC[C@H](O)COc1ccccc1C1CCCC1.O=S(=O)(O)O [PENBUTOLOL SULFATE] | Compound NOT metabolized
O=C(O[C@H]1C[C@H]2CC[C@@H](C1)[N+]21CCCC1)C(O)(c1ccccc1)c1ccccc1.[Cl-] [TROSPIUM CHLORIDE] | Compound NOT metabolized
C[C@@H]1C[C@H]2[C@@H]3CCC4=CC(=O)C=C[C@]4(C)[C@@]3(F)[C@@H](O)C[C@]2(C)[C@@]1(O)C(=O)CO [DEXAMETHASONE] | Compound NOT metabolized

Test: The drug is tested on Edwardsiella tarda strain: ATCC23685 for biotransformation. The drug concentrations were measured before and after a 12-h incubation by liquid-chromatography-coupled mass spectrometry (LC–MS)
Settings: 2 µM

Structure (SMILES) | Bacterial Biotransformation
CC(C)(C)NC[C@H](O)COc1ccccc1C1CCCC1.CC(C)(C)NC[C@H](O)COc1ccccc1C1CCCC1.O=S(=O)(O)O [PENBUTOLOL SULFATE] | Compound NOT metabolized
O=C(O[C@H]1C[C@H]2CC[C@@H](C1)[N+]21CCCC1)C(O)(c1ccccc1)c1ccccc1.[Cl-] [TROSPIUM CHLORIDE] | Compound NOT metabolized
C[C@@H]1C[C@H]2[C@@H]3CCC4=CC(=O)C=C[C@]4(C)[C@@]3(F)[C@@H](O)C[C@]2(C)[C@@]1(O)C(=O)CO [DEXAMETHASONE] | Compound NOT metabolized

Test: The drug is tested on Providencia stuartii strain: ATCC25827 for biotransformation. The drug concentrations were measured before and after a 12-h incubation by liquid-chromatography-coupled mass spectrometry (LC–MS)
Settings: 2 µM

Structure (SMILES) | Bacterial Biotransformation
CC(C)(C)NC[C@H](O)COc1ccccc1C1CCCC1.CC(C)(C)NC[C@H](O)COc1ccccc1C1CCCC1.O=S(=O)(O)O [PENBUTOLOL SULFATE] | Compound NOT metabolized
OC(c1cc(C(F)(F)F)nc2c(C(F)(F)F)cccc12)C1CCCCN1 (configuration not stated) [MEFLOQUINE] | Compound NOT metabolized
O=C(O[C@H]1C[C@H]2CC[C@@H](C1)[N+]21CCCC1)C(O)(c1ccccc1)c1ccccc1.[Cl-] [TROSPIUM CHLORIDE] | Compound NOT metabolized

Settings: bacteroides fragilis, 12 h, 2 µM
Description: The drug is tested on Bacteroides fragilis strain: 3397 (T10) for biotransformation. The drug concentrations were measured before and after a 12-h incubation by liquid-chromatography-coupled mass spectrometry (LC–MS)

Structure (SMILES) | Bacterial Biotransformation
OC(c1cc(C(F)(F)F)nc2c(C(F)(F)F)cccc12)C1CCCCN1 (configuration not stated) [MEFLOQUINE] | Compound NOT metabolized
O=C(O[C@H]1C[C@H]2CC[C@@H](C1)[N+]21CCCC1)C(O)(c1ccccc1)c1ccccc1.[Cl-] [TROSPIUM CHLORIDE] | Compound NOT metabolized

Settings: bacteroides fragilis, 12 h, 2 µM
Remark: another data set of the same source
Description: The drug is tested on Bacteroides fragilis strain: DS-208 for biotransformation. The drug concentrations were measured before and after a 12-h incubation by liquid-chromatography-coupled mass spectrometry (LC–MS)

Structure (SMILES) | Bacterial Biotransformation
O=C(O[C@H]1C[C@H]2CC[C@@H](C1)[N+]21CCCC1)C(O)(c1ccccc1)c1ccccc1.[Cl-] [TROSPIUM CHLORIDE] | Compound NOT metabolized
C[C@@H]1C[C@H]2[C@@H]3CCC4=CC(=O)C=C[C@]4(C)[C@@]3(F)[C@@H](O)C[C@]2(C)[C@@]1(O)C(=O)CO [DEXAMETHASONE] | Compound metabolized

Settings: bacteroides thetaiotaomicron, 12 h, 2 µM
Description: The drug is tested on Bacteroides thetaiotaomicron strain: 3731 for biotransformation. The drug concentrations were measured before and after a 12-h incubation by liquid-chromatography-coupled mass spectrometry (LC–MS)

Structure (SMILES) | Bacterial Biotransformation
CC(C)(C)NC[C@H](O)COc1ccccc1C1CCCC1.CC(C)(C)NC[C@H](O)COc1ccccc1C1CCCC1.O=S(=O)(O)O [PENBUTOLOL SULFATE] | Compound NOT metabolized
OC(c1cc(C(F)(F)F)nc2c(C(F)(F)F)cccc12)C1CCCCN1 (configuration not stated) [MEFLOQUINE] | Compound NOT metabolized
O=C(O[C@H]1C[C@H]2CC[C@@H](C1)[N+]21CCCC1)C(O)(c1ccccc1)c1ccccc1.[Cl-] [TROSPIUM CHLORIDE] | Compound NOT metabolized
C[C@@H]1C[C@H]2[C@@H]3CCC4=CC(=O)C=C[C@]4(C)[C@@]3(F)[C@@H](O)C[C@]2(C)[C@@]1(O)C(=O)CO [DEXAMETHASONE] | Compound NOT metabolized

Settings: parabacteroides johnsonii, 12 h, 2 µM
Description: The drug is tested on Parabacteroides johnsonii strain: DSM18315 for biotransformation. The drug concentrations were measured before and after a 12-h incubation by liquid-chromatography-coupled mass spectrometry (LC–MS)

Structure (SMILES) | Bacterial Biotransformation
OC(c1cc(C(F)(F)F)nc2c(C(F)(F)F)cccc12)C1CCCCN1 (configuration not stated) [MEFLOQUINE] | Compound NOT metabolized
O=C(O[C@H]1C[C@H]2CC[C@@H](C1)[N+]21CCCC1)C(O)(c1ccccc1)c1ccccc1.[Cl-] [TROSPIUM CHLORIDE] | Compound NOT metabolized
C[C@@H]1C[C@H]2[C@@H]3CCC4=CC(=O)C=C[C@]4(C)[C@@]3(F)[C@@H](O)C[C@]2(C)[C@@]1(O)C(=O)CO [DEXAMETHASONE] | Compound metabolized

Settings: roseburia intestinalis, 12 h, 2 µM
Description: The drug is tested on Roseburia intestinalis strain: L1-82 for biotransformation. The drug concentrations were measured before and after a 12-h incubation by liquid-chromatography-coupled mass spectrometry (LC–MS)

Structure (SMILES) | Bacterial Biotransformation
CC(C)(C)NC[C@H](O)COc1ccccc1C1CCCC1.CC(C)(C)NC[C@H](O)COc1ccccc1C1CCCC1.O=S(=O)(O)O [PENBUTOLOL SULFATE] | Compound NOT metabolized
OC(c1cc(C(F)(F)F)nc2c(C(F)(F)F)cccc12)C1CCCCN1 (configuration not stated) [MEFLOQUINE] | Compound metabolized
O=C(O[C@H]1C[C@H]2CC[C@@H](C1)[N+]21CCCC1)C(O)(c1ccccc1)c1ccccc1.[Cl-] [TROSPIUM CHLORIDE] | Compound NOT metabolized
